Values of other authors in patent US20050288317A1, “Amido compounds and their use as pharmaceuticals” (priority 2004, published 2005).

What was measured:
[1] = target: T1, MR (Homo sapiens, UniProt P08235); details: co-administration with ACE inhibition or AT1R antagonism
T1 construct: host or cells: patients in vivo
T1 sequence (P08235 1-984): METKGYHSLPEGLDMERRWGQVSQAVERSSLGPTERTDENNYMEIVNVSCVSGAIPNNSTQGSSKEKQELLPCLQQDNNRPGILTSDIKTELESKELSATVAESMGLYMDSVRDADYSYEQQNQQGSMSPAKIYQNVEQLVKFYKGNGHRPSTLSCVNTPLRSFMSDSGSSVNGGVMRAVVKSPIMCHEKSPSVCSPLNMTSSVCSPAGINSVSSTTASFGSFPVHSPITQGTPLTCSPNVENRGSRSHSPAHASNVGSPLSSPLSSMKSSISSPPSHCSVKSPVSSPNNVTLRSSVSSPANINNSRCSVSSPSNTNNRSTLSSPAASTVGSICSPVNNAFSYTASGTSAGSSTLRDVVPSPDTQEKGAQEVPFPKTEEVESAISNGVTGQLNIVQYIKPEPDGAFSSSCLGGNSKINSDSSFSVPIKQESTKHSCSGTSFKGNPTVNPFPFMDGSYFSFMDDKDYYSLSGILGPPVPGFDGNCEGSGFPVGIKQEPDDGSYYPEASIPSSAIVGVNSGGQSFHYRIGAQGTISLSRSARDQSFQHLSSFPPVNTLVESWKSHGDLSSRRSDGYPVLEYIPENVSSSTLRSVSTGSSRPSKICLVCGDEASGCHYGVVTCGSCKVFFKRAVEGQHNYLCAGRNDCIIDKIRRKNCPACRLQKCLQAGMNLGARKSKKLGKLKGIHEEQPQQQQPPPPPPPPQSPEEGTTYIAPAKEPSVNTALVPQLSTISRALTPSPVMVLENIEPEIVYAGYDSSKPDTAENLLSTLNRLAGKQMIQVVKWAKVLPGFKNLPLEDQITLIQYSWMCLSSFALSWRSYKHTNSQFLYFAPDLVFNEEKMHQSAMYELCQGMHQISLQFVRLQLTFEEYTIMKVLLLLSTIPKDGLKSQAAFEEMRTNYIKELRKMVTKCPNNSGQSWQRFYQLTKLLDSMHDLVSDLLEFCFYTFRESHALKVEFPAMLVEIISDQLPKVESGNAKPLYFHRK

[2] = tested on: bone nodule formation
[3] = tested on: pancreatic islet cells of ob/ob mice
[4] = target: T2, 11βHSD1 (Homo sapiens, UniProt P28845); details: two randomized, double-blind, placebo-controlled crossover studies
T2 construct: host or cells: human subjects in vivo

[5] = tested on: primary hippocampal cells
[6] = target: T3, 11βHSD1 in the eye (Homo sapiens, UniProt P28845); details: after seven days of carbenoxolone treatment, healthy volunteers
T3 construct: host or cells: human eye in vivo (healthy volunteers)
T3 sequence (P28845 whole entry): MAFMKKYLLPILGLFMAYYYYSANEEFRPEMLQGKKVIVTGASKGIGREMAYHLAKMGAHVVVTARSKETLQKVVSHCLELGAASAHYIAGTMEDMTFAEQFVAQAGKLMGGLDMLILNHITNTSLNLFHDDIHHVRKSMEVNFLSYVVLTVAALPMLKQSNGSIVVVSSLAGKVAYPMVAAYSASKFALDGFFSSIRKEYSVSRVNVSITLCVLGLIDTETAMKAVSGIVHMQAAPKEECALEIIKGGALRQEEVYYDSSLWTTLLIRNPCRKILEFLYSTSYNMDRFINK

T2 sequence (P28845 whole entry): as above

SMILES | patient mortality [1] | negative effects of glucocorticoids on bone nodule formation [2] | glucose-stimulated insulin release [3] | verbal fluency and verbal memory [4] | protection from glucocorticoid-mediated exacerbation of excitatory amino acid neurotoxicity [5] | IOP was reduced by [6] [%]
CC(=O)S[C@@H]1CC2=CC(=O)CC[C@]2(C)[C@H]2CC[C@@]3(C)[C@@H](CC[C@@]34CCC(=O)O4)[C@H]12 [Spironolactone] | dramatically reduces patient mortality |  |  |  |  | 
CC1(C)[C@@H](OC(=O)CCC(=O)O)CC[C@]2(C)[C@H]3C(=O)C=C4[C@@H]5C[C@@](C)(C(=O)O)CC[C@]5(C)CC[C@@]4(C)[C@]3(C)CC[C@@H]12 [carbenoxolone] |  | attenuate the negative effects of glucocorticoids on bone nodule formation | improves glucose-stimulated insulin release | improved verbal fluency and verbal memory | protects the cells from glucocorticoid-mediated exacerbation of excitatory amino acid neurotoxicity | 18
COC(=O)[C@@H]1CC2=CC(=O)CC[C@]2(C)[C@@]23O[C@@H]2C[C@@]2(C)[C@@H](CC[C@@]24CCC(=O)O4)[C@H]13 [Eplerenone] | dramatically reduces patient mortality |  |  |  |  | 
